Data set [1] deals with T1, Candida albicans isoleucyl-tRNA synthetase, N-terminal GST-fusion protein (GST-IleRS) encoded by pQB83CAIRS-1, produced in S. cerevisiae, SEQ ID NO:2 (Candida albicans, UniProt Q59RI1, S1065L/S390L).
T1 construct: thrombin-cleavable), pQB83CAIRS-1, expressed in S. cerevisiae QBY3; CTG codons 390 and 1065 read as Leu by host
Description: Aminoacylation (charging) assay for Km determination, purified GST-IleRS fusion. It counts as biochemical. The conditions noted are these: isoleucine varied; 1.09 nM active enzyme; crude yeast tRNA. As for the experimental part: (§1) The purified recombinant GST-fusion protein and the product after thrombin cleavage of the GST-fusion protein were tested for their charging activities. Charging assays were based on the procedure of Shepard et al. (Proc. Natl. Acad. Sci. USA 89:9964-68 (1992)). Unless otherwise stated, a typical 50 μl reaction was carried out at 25° C. and contained 4 mM ATP, 20 μM of [^3 H]isoleucine, 90 μM crude tRNA from E. coli (Sigma) or brewer's yeast (Boehringer Mannheim), 10 μM KF, 50 mM HEPES, pH 7.5, 10 mM MgCl2, 10 mM DTT or β-mercaptoethanol and 30 mM NH4 Cl. Purified enzyme was diluted in 100 mM HEPES, pH 7.5, 20 mM DTT and 0.1 mg/ml BSA.
(§2) Reactions were started by the addition of enzyme to the reaction mixture preincubated at 25° C. At various time intervals, 10 μl of the reaction mix was spotted on 3MM Whatman filter circles which were then immersed in ice cold 5% TCA. After three washes in ice cold 5% TCA (at least 15 minutes each), the filters were rinsed once with cold ethanol, once with ether, and air dried. The radioactivity was quantitated by counting the filters in a table top scintillation counter (Packard) in the presence of scintillation fluid (Betafluor; National Diagnostics).
(§3) For determination of Km, various concentrations of one substrate (ATP, amino acid, or tRNA) were used while the other two substrates were kept at saturating concentrations. To test the effect of temperature, the reactions were incubated at 25°, 30°, 37° and 42° C. The Bradford assay was used for determination of total protein. The proportion of active enzyme was calculated by monitoring the formation of the amino acid-adenylate:enzyme complex using a nitrocellulose filter binding assay in the presence of various dilutions of enzyme preparation. A 50 μl reaction contained 1 mM ATP, 1 unit of pyrophosphatase, 50 mM Tris-HCl, pH 5.8, 10 mM MgCl2, 30 mM KCl, 20 mM DTT, 40 μM of radioactively labeled amino acid, and diluted enzyme. […]

In another data set the test system is CC[C@H](C)[C@H](N)C(=O)O. The data set is described as above. The conditions noted are these: other: crude yeast tRNA, 2 to 32 μM [3H]isoleucine, 25° C., spread printed in b267: ±4.8 μM. It counts as biochemical, Candida albicans. As for the experimental part:
as §1, §2, §3

The Vmax is the rate approached at saturating substrate. As usually defined, the Km is the substrate concentration at which the rate is half of its maximum.

T1 sequence (Q59RI1 whole entry S390L/N691S/E755D/I1040V/S1065L, the tested form may be a part): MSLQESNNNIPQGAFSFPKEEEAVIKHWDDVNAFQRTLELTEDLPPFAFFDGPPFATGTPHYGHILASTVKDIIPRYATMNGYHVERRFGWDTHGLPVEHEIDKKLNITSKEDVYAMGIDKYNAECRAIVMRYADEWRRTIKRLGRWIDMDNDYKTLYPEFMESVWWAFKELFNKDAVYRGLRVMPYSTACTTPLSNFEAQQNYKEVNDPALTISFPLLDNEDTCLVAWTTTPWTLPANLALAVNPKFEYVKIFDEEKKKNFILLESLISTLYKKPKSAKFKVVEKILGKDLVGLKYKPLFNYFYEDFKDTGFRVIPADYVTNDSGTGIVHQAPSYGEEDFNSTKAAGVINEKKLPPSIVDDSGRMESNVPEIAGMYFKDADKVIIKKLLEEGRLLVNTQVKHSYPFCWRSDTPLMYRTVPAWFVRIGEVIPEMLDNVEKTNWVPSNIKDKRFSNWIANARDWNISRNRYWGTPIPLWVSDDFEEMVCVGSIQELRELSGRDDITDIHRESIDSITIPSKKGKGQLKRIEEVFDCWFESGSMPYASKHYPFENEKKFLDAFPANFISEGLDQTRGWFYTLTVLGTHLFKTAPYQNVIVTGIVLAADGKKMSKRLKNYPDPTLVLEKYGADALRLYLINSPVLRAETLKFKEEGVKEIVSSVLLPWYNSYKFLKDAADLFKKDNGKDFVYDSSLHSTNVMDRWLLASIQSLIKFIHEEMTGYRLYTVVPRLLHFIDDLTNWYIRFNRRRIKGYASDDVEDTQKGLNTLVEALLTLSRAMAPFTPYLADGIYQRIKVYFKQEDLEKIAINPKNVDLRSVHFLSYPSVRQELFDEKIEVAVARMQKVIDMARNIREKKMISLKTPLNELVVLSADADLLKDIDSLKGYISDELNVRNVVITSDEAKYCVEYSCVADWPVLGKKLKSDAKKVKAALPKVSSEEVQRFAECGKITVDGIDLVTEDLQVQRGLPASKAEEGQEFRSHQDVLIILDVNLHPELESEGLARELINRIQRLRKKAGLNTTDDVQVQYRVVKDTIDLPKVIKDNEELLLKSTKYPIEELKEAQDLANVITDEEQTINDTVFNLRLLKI

Take `CC[C@H](C)[C@H](N)C(=O)O` [isoleucine]: in data set [1], the Vmax was 4 ± 0.5 nM/s and the kcat amounted to 3.7±0.5 per sec.

As to “Candida albicans isoleucyl-tRNA synthetase, N-terminal GST-fusion protein (GST-IleRS) encoded by pQB83CAIRS-1, produced in S. cerevisiae, SEQ ID NO:2 (Candida albicans SC5314; S1065L/S390L)”, the Km with CC[C@H](C)[C@H](N)C(=O)O was determined as 17 µM.

For the origin of these results see patent publication US5885815A, “Candida isoleucyl-tRNA synthetase proteins, nucleic acids and strains comprising same” (priority 1996, dated 1999).
